Patent US20070193894A1, “Container for constituting a formulation in liquid form” (IDD-EAL MANUFACTURING COMPANY LIMITED, priority 2004, published 2007)

How the values were obtained:
[1] = Acetaminophen formulation blends tested in different volumes of water and containers; assay type: physicochemical; conditions: conclusion of Example 13
Method: Blends of the above components were tested in three different volumes df water: 20 ml, 40 ml and 80 ml in different containers.
In the case of the second formulation a single volume (20 ml) in two different containers were investigated, namely a small bottle and a sampling container with cap.

[2] = Ibuprofen formulation test: behaviour in water; assay type: physicochemical; conditions: conclusion of Example 14
Method: Two volumes of water were tested, namely 20 ml and 40 ml in two different containers, namely a small bottle and a beaker. One volume of water was tested, namely 20 ml, and a single container, namely a small bottle. In the case of the above two formulations, the behaviour of ibuprofen in water was tested and the generation of bubbles was optimised by increasing the quantity of citric acid, sodium bicarbonate and potassium hydrogen carbonate.

Row | Compound | remaining in suspension in water [1] | stability in water [1] | remaining in suspension in water [2] | stability in water [2]
1 | CC(=O)Nc1ccc(O)cc1 [acetaminophen, Acetaminophen] | does not remain in suspension | not stable in water | – | –
2 | CC(C)Cc1ccc(C(C)C(=O)O)cc1 (stereo not drawn) [ibuprofen, 4-Isobutyl-Alpha-Methylphenylacetic Acid (Ibuprofen)] | – | – | does not remain in suspension | not stable in water
